Active and inactive are the calls of the source. The calls are words filed in the database; no cut-off is given here.
Experiments:
HRMC [1] = assay: Anti-fibrotic activity in human HRMC cells assessed as downregulation of COL16A1 mRNA expression at 1 uM pretreated with compound for 30 mins followed by TGF-beta stimulation and measured after 24 hrs by qRT-PCR analysis; assay type: functional, cell-based; settings: time 24.5 hrs
Mus musculus [2] = assay: (§1) Anti-fibrotic activity against CCl4-induced liver fibrosis C57BL/6 mouse model assessed as reduction in serum TBIL level at 200 mg/kg, ig administered for 27 days with first injection started at 24 hrs post-first CCl4 challenge and measured at 48 hrs post-last administration; assay type: functional, organism-based; settings: time 29.0 day
NHCF-V [3] = assay: Anti-fibrotic activity in human NHCF-V cells assessed as downregulation of TGF-beta1 mRNA expression at 1 uM pretreated with compound for 30 mins followed by TGF-beta stimulation and measured after 24 hrs by qRT-PCR analysis; assay type: functional, cell-based; settings: time 24.5 hrs
HRMC [4] = assay: Anti-fibrotic activity in human HRMC cells assessed as downregulation of CTGF mRNA expression at 1 uM pretreated with compound for 30 mins followed by TGF-beta stimulation and measured after 24 hrs by qRT-PCR analysis; assay type: functional, cell-based; settings: time 24.5 hrs
Mus musculus [5] = assay: as §1, with “liver bridging fibrosis” for “serum TBIL level”, “administration by Masson's trichrome staining based analysis” for “administration”; assay type: functional, organism-based; settings: time 29.0 day
LX-2 [6] = assay: Anti-fibrotic activity in human LX2 cells assessed as downregulation of COL1A1 mRNA expression at 1 uM pretreated with compound for 30 mins followed by TGF-beta stimulation and measured after 24 hrs by qRT-PCR analysis; assay type: functional, cell-based; settings: time 24.5 hrs
HRMC [7] = assay: Anti-fibrotic activity in human HRMC cells assessed as downregulation of COL4A1 mRNA expression at 1 uM pretreated with compound for 30 mins followed by TGF-beta stimulation and measured after 24 hrs by qRT-PCR analysis; assay type: functional, cell-based; settings: time 24.5 hrs
Mus musculus [8] = assay: Anti-fibrotic activity against CCl4-induced liver fibrosis C57BL/6 mouse model assessed as reduction in serum ALT level at 200 mg/kg, ig administered for 27 days with first injection started at 24 hrs post-first CCl4 challenge and measured at 48 hrs post-last administration; assay type: functional, organism-based; settings: time 29.0 day
LX-2 [9] = assay: Anti-fibrotic activity in human LX2 cells assessed as downregulation of CTGF mRNA expression at 1 uM pretreated with compound for 30 mins followed by TGF-beta stimulation and measured after 24 hrs by qRT-PCR analysis; assay type: functional, cell-based; settings: time 24.5 hrs
LX-2 [10] = assay: Anti-fibrotic activity in human LX2 cells assessed as downregulation of ACTA2 mRNA expression at 1 uM pretreated with compound for 30 mins followed by TGF-beta stimulation and measured after 24 hrs by qRT-PCR analysis; assay type: functional, cell-based; settings: time 24.5 hrs
HRMC [11] = assay: Anti-fibrotic activity in human HRMC cells assessed as downregulation of IL11 mRNA expression at 1 uM pretreated with compound for 30 mins followed by TGF-beta stimulation and measured after 24 hrs by qRT-PCR analysis; assay type: functional, cell-based; settings: time 24.5 hrs
NHCF-V [12] = assay: Anti-fibrotic activity in human NHCF-V cells assessed as downregulation of CTGF mRNA expression at 1 uM pretreated with compound for 30 mins followed by TGF-beta stimulation and measured after 24 hrs by qRT-PCR analysis; assay type: functional, cell-based; settings: time 24.5 hrs
Mus musculus [13] = assay: (§2) Anti-fibrotic activity against BLM-induced pulmonary fibrosis C57BL/6 mouse model assessed as reduction in lung fibrosis at 200 mg/kg administered via gavage for 13 days with first injection started at 24 hrs post-first BLM challenge and measured after 24 hrs by Ashcroft score based analysis; assay type: functional, organism-based; settings: time 14.0 day
LX-2 [14] = assay: Anti-fibrotic activity in human LX2 cells assessed as downregulation of PAI-1 mRNA expression at 1 uM pretreated with compound for 30 mins followed by TGF-beta stimulation and measured after 24 hrs by qRT-PCR analysis; assay type: functional, cell-based; settings: time 24.5 hrs
Mus musculus [15] = assay: Anti-fibrotic activity against CCl4-induced liver fibrosis C57BL/6 mouse model assessed as reduction in serum IBIL level at 200 mg/kg, ig administered for 27 days with first injection started at 24 hrs post-first CCl4 challenge and measured at 48 hrs post-last administration; assay type: functional, organism-based; settings: time 29.0 day
NHCF-V [16] = assay: Anti-fibrotic activity in human NHCF-V cells assessed as downregulation of ACTA2 mRNA expression at 1 uM pretreated with compound for 30 mins followed by TGF-beta stimulation and measured after 24 hrs by qRT-PCR analysis; assay type: functional, cell-based; settings: time 24.5 hrs
NHCF-V [17] = assay: Anti-fibrotic activity in human NHCF-V cells assessed as downregulation of PAI-1 mRNA expression at 1 uM pretreated with compound for 30 mins followed by TGF-beta stimulation and measured after 24 hrs by qRT-PCR analysis; assay type: functional, cell-based; settings: time 24.5 hrs
Mus musculus [18] = assay: as §1, with “liver bridging fibrosis” for “serum TBIL level”, “250” for “200”, “administration by Masson's trichrome staining based analysis” for “administration”; assay type: functional, organism-based; settings: time 29.0 day
[19] = Anti-fibrotic activity in human NHCF-V cells assessed as downregulation of PAI-1 mRNA expression at 0.1 to 1 uM pretreated with compound for 30 mins followed by TGF-beta stimulation and measured after 24 hrs by qRT-PCR analysis; assay type: functional; settings: dose 0.1-1 µM, time 24.5 hrs
Mus musculus [20] = assay: Anti-fibrotic activity against BLM-induced pulmonary fibrosis C57BL/6 mouse model assessed as reduction in hydroxyproline content in lungs at 200 mg/kg administered via gavage for 13 days with first injection started at 24 hrs post-first BLM challenge and measured after 24 hrs; assay type: functional, organism-based; settings: time 14.0 day
Mus musculus [21] = assay: as §2, with “lung inflammation” for “lung fibrosis”, “by Masson's trichrome staining” for “by Ashcroft score”; assay type: functional, organism-based; settings: time 14.0 day
Mus musculus [22] = assay: Anti-fibrotic activity against CCl4-induced liver fibrosis C57BL/6 mouse model assessed as reduction in serum hydroxyproline content at 200 mg/kg, ig administered for 27 days with first injection started at 24 hrs post-first CCl4 challenge and measured at 48 hrs post-last administration; assay type: functional, organism-based; settings: time 29.0 day
Mus musculus [23] = assay: (§3) Anti-fibrotic activity against BLM-induced pulmonary fibrosis C57BL/6 mouse model assessed as reduction in area of lung fibrosis at 200 mg/kg administered via gavage for 13 days with first injection started at 24 hrs post-first BLM challenge and measured after 24 hrs by H and E staining based microscopic analysis; assay type: functional, organism-based; settings: time 14.0 day
LX-2 [24] = assay: Anti-fibrotic activity in human LX2 cells assessed as downregulation of ACTA2 mRNA expression at 0.1 to 1 uM pretreated with compound for 30 mins followed by TGF-beta stimulation and measured after 24 hrs by qRT-PCR analysis; assay type: functional, cell-based; settings: dose 0.1-1 µM, time 24.5 hrs
[25] = Anti-fibrotic activity in human NHCF-V cells assessed as downregulation of CTGF mRNA expression at 0.1 to 1 uM pretreated with compound for 30 mins followed by TGF-beta stimulation and measured after 24 hrs by qRT-PCR analysis; assay type: functional; settings: dose 0.1-1 µM, time 24.5 hrs
Mus musculus [26] = assay: as §3, with “in” for “in area of”, “lung inflammation” for “lung fibrosis”; assay type: functional, organism-based; settings: time 14.0 day
Mus musculus [27] = assay: as §3, with “Masson's trichrome” for “H and E”, “based” for “based microscopic”; assay type: functional, organism-based; settings: time 14.0 day
LX-2 [28] = assay: Anti-fibrotic activity in human LX2 cells assessed as downregulation of CTGF mRNA expression at 0.1 to 1 uM pretreated with compound for 30 mins followed by TGF-beta stimulation and measured after 24 hrs by qRT-PCR analysis; assay type: functional, cell-based; settings: dose 0.1-1 µM, time 24.5 hrs
[29] = Anti-fibrotic activity in human NHCF-V cells assessed as downregulation of ACTA2 mRNA expression at 0.1 to 1 uM pretreated with compound for 30 mins followed by TGF-beta stimulation and measured after 24 hrs by qRT-PCR analysis; assay type: functional; settings: dose 0.1-1 µM, time 24.5 hrs

| SMILES | Activity (HRMC [1]) | Activity (NHCF-V [3]) | Activity (HRMC [4]) | Activity (LX-2 [6]) | Activity (HRMC [7]) | Activity (LX-2 [9]) | Activity (LX-2 [10]) | Activity (HRMC [11]) | Activity (NHCF-V [12]) | Activity (LX-2 [14]) | Activity (NHCF-V [16]) | Activity (NHCF-V [17]) | further results |
| --- | --- | --- | --- | --- | --- | --- | --- | --- | --- | --- | --- | --- | --- |
| CC1(C[S+]([O-])c2cccc(F)c2)COC1 (centres undefined) | Active |  |  |  |  |  |  |  |  |  |  |  |  |
| CC1(C[S+]([O-])c2ccccc2)COC1 (centres undefined) | inactive | inactive | inactive | inactive | inactive | inactive | inactive | inactive | inactive | inactive | inactive | inactive | Activity (Mus musculus [2]): Active; Activity (Mus musculus [5]): inactive; Activity (Mus musculus [8]): Active; Activity (Mus musculus [13]): Active; Activity (Mus musculus [15]): Active |
| NC(=O)C[S+]([O-])Cc1ccccc1 (centres undefined) | inactive | inactive | inactive | inactive | inactive | inactive | inactive | inactive | inactive | inactive | inactive | inactive |  |
| CCC1(C[S+]([O-])c2cccc(F)c2)COC1 (centres undefined) |  |  |  |  |  |  |  |  |  |  |  | Active |  |
| NC(=O)C[S+]([O-])c1cccc(F)c1 (centres undefined) | inactive | inactive | inactive | inactive | inactive | inactive | inactive | inactive | inactive | inactive | inactive | inactive |  |
| Cc1ccc(=O)n(-c2ccccc2)c1 |  |  |  |  |  |  |  |  |  |  |  |  | Activity (Mus musculus [18]): Active |
| CC1(C[S+]([O-])Cc2ccccc2)COC1 (centres undefined) | inactive |  | inactive |  | inactive |  |  | inactive |  |  |  |  | Activity (Mus musculus [2]): Active; inhibition (INH) [19]: <30%; Activity (Mus musculus [20]): Active; Activity (Mus musculus [21]): Active; Activity (Mus musculus [5]): Active; Activity (Mus musculus [22]): Active; Activity (Mus musculus [8]): Active; Activity (Mus musculus [23]): Active; Activity (LX-2 [24]): Active; inhibition (INH) [25]: <30%; Activity (Mus musculus [26]): Active; Activity (Mus musculus [13]): Active; Activity (Mus musculus [15]): Active; Activity (Mus musculus [27]): Active; Activity (LX-2 [28]): Active; inhibition (INH) [29]: <30% |

Source: ChEMBL document CHEMBL5236593, “Design, synthesis and biological evaluation studies of novel anti-fibrosis agents bearing sulfoxide moiety” (2022)
